The subject of one data set is PC-12. Kind of data set: Neuroprotective effect against H2O2-induced rat PC12 cell injury assessed as cell viability at 10 uM incubated for 2 hrs prior to H2O2 challenge measured after 24 hrs by MTT assay (reference value: 57.6%). Type of data set: functional. To be noted: read-out: Activity. Background: Tetrazolium assays rely on reduction of a dye to a coloured formazan, in cell work by metabolically active cells.

In the next data set the target is T1, Acetylcholinesterase (Rattus norvegicus, UniProt P37136).
T1 sequence (P37136 whole entry): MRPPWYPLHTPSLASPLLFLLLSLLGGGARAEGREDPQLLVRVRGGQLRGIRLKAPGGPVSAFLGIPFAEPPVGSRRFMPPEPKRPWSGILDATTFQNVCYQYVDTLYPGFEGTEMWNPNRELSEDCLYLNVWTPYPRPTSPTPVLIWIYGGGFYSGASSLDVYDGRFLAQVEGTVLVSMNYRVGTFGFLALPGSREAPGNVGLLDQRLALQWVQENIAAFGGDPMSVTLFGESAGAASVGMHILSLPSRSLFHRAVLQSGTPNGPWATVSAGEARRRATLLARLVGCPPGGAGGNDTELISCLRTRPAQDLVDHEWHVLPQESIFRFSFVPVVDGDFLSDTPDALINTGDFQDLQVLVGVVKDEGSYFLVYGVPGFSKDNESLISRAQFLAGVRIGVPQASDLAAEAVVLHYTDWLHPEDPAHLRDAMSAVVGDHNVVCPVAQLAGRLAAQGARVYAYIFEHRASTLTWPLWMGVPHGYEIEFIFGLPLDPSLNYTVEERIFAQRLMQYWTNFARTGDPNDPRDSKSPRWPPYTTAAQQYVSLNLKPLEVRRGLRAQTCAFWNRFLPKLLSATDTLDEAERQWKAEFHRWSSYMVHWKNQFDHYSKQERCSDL
Nature of the data set: Inhibition of rat cortex AChE using acetylthiocholine iodide as substrate after 15 mins by Ellman method. Background: Ellman's reagent forms a yellow product with free thiols.

Data set [1] can be described thus: Metal chelating activity of the compound assessed as Fe2+ complex formation after 30 mins by UV-Vis spectrometry. The format is physicochemical. The conditions noted are these: 0.5 h.
Data set [2] is described as follows: Inhibition of rat serum BuChE using butyrylthiocholine iodide as substrate after 15 mins by Ellman method. Type of data set: cell-free.
Data set [3] in a line: Metal chelating activity of the compound assessed as Cu2+ complex formation after 30 mins by UV-Vis spectrometry. To be noted: 0.5 h. Type of data set: physicochemical.
A short description of data set [4]: Metal chelating activity of the compound assessed as Al3+ complex formation after 30 mins by UV-Vis spectrometry. The format is physicochemical. To be noted: 0.5 h.
The species entered for another data set is Rattus norvegicus. Kind of data set: Selectivity index, ratio of IC50 for rat serum BuChE to IC50 for rat cortex AChE. The format is cell-free.
Data set [5] can be described thus: Antioxidant activity assessed as trolox equivalent of […]-induced radical scavenging activity by ORAC-FL method. Type of data set: physicochemical.
A short description of data set [6]: Metal chelating activity of the compound assessed as Zn2+ complex formation after 30 mins by UV-Vis spectrometry. Type of data set: physicochemical. To be noted: 0.5 h.
Data set [7] has as its system Mus musculus. Kind of data set: Cognitive enhancing effect in Kunming mouse assessed as inhibition of scopolamine-induced decreased spontaneous alternation behavior at 6 mg/kg after 30 mins by T-maze test. Details: scale not given: the % may be the effect or the level left. Type of data set: functional.
The test system of data set [8] is Mus musculus. Kind of data set: Neuroprotective effect in scopolamine-treated Kunming mouse hippocampus assessed as increase in vitality of ChAT at 6 mg/kg by Ellman method. Type of data set: functional.
In data set [9] the test system is Mus musculus. Nature of the data set: Neuroprotective effect in Kunming mouse hippocampus assessed as reduction of scopolamine-induced vitality of AChE at 6 mg/kg by Ellman method. The format is functional.
In data set [10] the target is Acetylcholinesterase (Electrophorus electricus) (UniProt O42275). Nature of the data set: Mixed-type inhibition of electric eel AChE using acetylthiocholine iodide as substrate at 0.5 to 1.5 uM after 15 mins by Lineweaver-Burk reciprocal plot analysis.
Chain of Acetylcholinesterase (Electrophorus electricus) (O42275 24-633 limits assumed): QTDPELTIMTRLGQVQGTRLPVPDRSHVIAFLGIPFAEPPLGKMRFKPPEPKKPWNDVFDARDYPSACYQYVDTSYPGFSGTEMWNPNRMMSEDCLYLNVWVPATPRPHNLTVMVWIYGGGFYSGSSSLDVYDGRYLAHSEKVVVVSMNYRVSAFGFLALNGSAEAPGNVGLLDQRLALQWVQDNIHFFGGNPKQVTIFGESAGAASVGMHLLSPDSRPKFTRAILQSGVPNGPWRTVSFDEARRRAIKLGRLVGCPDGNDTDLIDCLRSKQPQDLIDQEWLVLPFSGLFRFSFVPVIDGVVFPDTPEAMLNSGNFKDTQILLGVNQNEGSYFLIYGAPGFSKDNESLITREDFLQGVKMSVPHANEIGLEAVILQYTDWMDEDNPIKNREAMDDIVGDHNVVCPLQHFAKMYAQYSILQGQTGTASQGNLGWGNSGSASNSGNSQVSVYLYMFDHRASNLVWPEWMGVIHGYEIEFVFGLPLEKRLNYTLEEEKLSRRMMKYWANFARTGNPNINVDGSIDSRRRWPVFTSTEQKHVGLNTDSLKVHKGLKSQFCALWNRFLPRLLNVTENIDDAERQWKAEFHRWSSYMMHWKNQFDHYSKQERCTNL
Data set [11] is filed under the species Mus musculus. Nature of the data set: Neuroprotective effect in scopolamine-treated Kunming mouse hippocampus assessed as increase in vitality of ChAT by Ellman method. Type of data set: functional, organism-based.
In data set [12] the test system is Mus musculus. Nature of the data set: Toxicity in Kunming mouse assessed as change in behavior at 6 mg/kg. Also noted: dose 6 mg/kg. To be noted: in vivo. The format is organism-based.
The species entered for data set [13] is Mus musculus. Nature of the data set: Neuroprotective effect in Kunming mouse hippocampus assessed as reduction of scopolamine-induced vitality of AChE by Ellman method. Type of data set: functional, organism-based.
Data set [14] is filed under the species Mus musculus. Nature of the data set: Cognitive enhancing effect in Kunming mouse assessed as inhibition of scopolamine-induced decreased spontaneous alternation behavior after 30 mins by T-maze test. Type of data set: functional, organism-based.
Data set [15] has as its system Mus musculus. Kind of data set: Neuroprotective effect in scopolamine-treated Kunming mouse hippocampus assessed as increase in vitality of ChAT at 8 mg/kg by Ellman method. The format is functional.
The subject of data set [16] is Mus musculus. Nature of the data set: Toxicity in Kunming mouse assessed as change in behavior at 2 to 8 mg/kg. Type of data set: organism-based. Details: dose 2-8 mg/kg. To be noted: in vivo.
Data set [17] has as its system Mus musculus. Nature of the data set: Cognitive enhancing effect in Kunming mouse assessed as inhibition of scopolamine-induced decreased spontaneous alternation behavior at 8 mg/kg after 30 mins by T-maze test. Type of data set: functional. Also noted: scale not given: the % may be the effect or the level left.
Data set [18] relates to Mus musculus. Nature of the data set: Neuroprotective effect in Kunming mouse hippocampus assessed as reduction of scopolamine-induced vitality of AChE at 8 mg/kg by Ellman method. The format is functional.

Here are results for three compounds from ChEMBL document CHEMBL3399969, “Multifunctional scutellarin-rivastigmine hybrids with cholinergic, antioxidant, biometal chelating and neuroprotective properties for the treatment of Alzheimer's disease” (Bioorg Med Chem, 2015).

The source made the active and inactive calls. The calls are words filed in the database; no cut-off is given here.

For `CCN(CC)C(=O)Oc1ccc(-c2cc(=O)c3c(OC)c(OC)c(OC)cc3o2)cc1`, in the data set on PC-12, the viability at 10 µM was 70.3%. The IC50 at Acetylcholinesterase worked out at 0.34 µM; in data set [2] it was 8.2 µM. Besides, the Activity result in data set [1] was “Active”; in data set [3] it was “Active”; in data set [4] it was “Active”; in data set [5], 0.36; in data set [6] it was “Active”. For the same compound, the Ratio IC50 in the data set filed under Rattus norvegicus was determined as 24.1.
`CCN(C)C(=O)Oc1cccc([C@H](C)N(C)C)c1` [RIVASTIGMINE] gave an IC50 in data set [2] of 1.4 µM. Moreover, the Activity with Mus musculus [7] was determined as 67.3%; with Mus musculus [8], 44.8 U/mg; in the data set on Mus musculus [9], 0.087 U/mg.
In the case of `CCN(CC)C(=O)Oc1ccc(-c2cc(=O)c3c(O)c(OC)c(OC)cc3o2)cc1`, the viability at 10 µM in the data set with PC-12 came to 78.5%. In addition, the inhibition result in data set [10] is “Active”. The Activity entry in the data set filed under Mus musculus [11] was “Dose-dependent effect”; in data set [1], “Not Active”; in the data set on Mus musculus [12] it was “Non-toxic”; in the data set filed under Mus musculus [13] it was “Dose-dependent effect”; in the data set listed under Mus musculus [14], “Dose-dependent effect”; in data set [3], “Not Active”. Further, the Activity was 45.2 U/mg in the data set with Mus musculus [15]; “Not Active” in data set [4]; “Non-toxic” in the data set on Mus musculus [16]; 68.7% with Mus musculus [17]; 1.3 in data set [5]; 0.11 U/mg in the data set on Mus musculus [18]. Further, in data set [6], the Activity entry is on record as “Not Active”. Further, the IC50 was 0.57 µM at Acetylcholinesterase and 22.6 µM in data set [2]. In addition, the Ratio IC50 in the data set filed under Rattus norvegicus turned out to be 39.7.

The term IC50 denotes the concentration that gives 50% inhibition.
